Source: patent US9387218B2, “Composition for the treatment of inflammatory and immune disorders” (EAGLEPHARMA PTY LTD, priority 2012, dated 2016)

Columns and labels:
psoriasis = test: Summary of treatments: Psoriasis; type: in vivo, human; parameters: key: The + values in the table represent a qualitative assessment of the treatment of symptoms in the patient groups tests; ++: The + values in the table represent a qualitative assessment of the treatment of symptoms in the patient groups tests; +++: The + values in the table represent a qualitative assessment of the treatment of symptoms in the patient groups tests; ++++: The + values in the table represent a qualitative assessment of the treatment of symptoms in the patient groups tests; +++++: 5+ indicating the greatest improvement in symptoms; conditions: patient groups
Solar Keratosis = test: Summary of treatments: Solar Keratosis; type: in vivo, human; parameters: key: The + values in the table represent a qualitative assessment of the treatment of symptoms in the patient groups tests; ++: The + values in the table represent a qualitative assessment of the treatment of symptoms in the patient groups tests; +++: The + values in the table represent a qualitative assessment of the treatment of symptoms in the patient groups tests; ++++: The + values in the table represent a qualitative assessment of the treatment of symptoms in the patient groups tests; +++++: 5+ indicating the greatest improvement in symptoms; conditions: patient groups
osteoarthritis = conditions: literature study; cited from earlier work
chondrocytes = conditions: in vitro; cited from earlier work
murine macrophages = conditions: in vitro; cited from earlier work
[1] = tested on: seasonal allergic rhinitis; conditions: oral, 2600 mg to 5200 mg per day; cited from earlier work
TNF-α production = conditions: in vitro; cited from earlier work

Structure (SMILES): NC(=O)c1cccnc1 [Nicotinamide oral (NC), nicotinamide]
- qualitative assessment of the treatment of symptoms: Psoriasis (psoriasis): +
- qualitative assessment of the treatment of symptoms: Solar Keratosis (Solar Keratosis): +

Structure (SMILES): N[C@H]1C(O)O[C@H](CO)[C@@H](O)[C@@H]1O (some centres unmarked) [glucosamine]
- effect in osteoarthritis (osteoarthritis): may improve the symptoms
- synthesis of proinflammatory mediators in chondrocytes (chondrocytes): inhibits the synthesis of proinflammatory mediators

Structure (SMILES): CS(C)(=O)=O [MSM, Methylsulphonylmethane]
- effect in murine macrophages (release of pro-inflammatory cytokines) (murine macrophages): anti-inflammatory effect
- effect in osteoarthritis (osteoarthritis): analgesic and anti-inflammatory effect
- symptoms associated with seasonal allergic rhinitis [1]: may reduce symptoms

Structure (SMILES): NCC(=O)O [glycine]
- immunomodulatory action, possibly by inhibiting TNF-α production (TNF-α production): immunomodulatory action
